Columns and labels:
[1] = system: larvae of the mustard beetle (Phaedon cochleariae); test: Phaedon test (sprayed Chinese cabbage discs); type: in vivo
Procedure: (§1) Phaedon Test Solvents: 78 parts by weight of acetone • • 1.5 parts by weight of dimethylformamide Emulsifier: 0.5 part by weight of alkylaryl polyglycol ether To produce a suitable preparation of active compound, 1 part by weight of active compound is mixed with the stated amounts of solvents and emulsifier and the concentrate is diluted with emulsifier-containing water to the desired concentration. Discs of Chinese cabbage (Brassica pekinensis) are sprayed with an active compound preparation of the desired concentration and, after drying, populated with larvae of the mustard beetle (Phaedon cochleariae). After the desired period of time, the activity in % is determined. 100% means that all beetle larvae have been killed; 0% means that none of the beetle larvae have been killed.

[2] = system: caterpillars of the cotton bollworm (Heliothis armigera); test: Heliothis armigera test (leaf dip); type: in vivo
Procedure: (§2) Heliothis armigera Test Solvent: 7 parts by weight of dimethylformamide Emulsifier: 2 parts by weight of alkylaryl polyglycol ether To produce a suitable preparation of active compound, 1 part by weight of active compound is mixed with the stated amounts of solvent and emulsifier and the concentrate is diluted with emulsifier-containing water to the desired concentration. Soya bean leaves (Glycine max.) are treated by being dipped into the active compound preparation of the desired concentration and populated with caterpillars of the cotton bollworm (Heliothis armigera) while the leaves are still moist. After the desired period of time, the kill in % is determined. 100% means that all caterpillars have been killed; 0% means that none of the caterpillars have been killed.

[3] = system: caterpillars of the diamondback moth (Plutella xylostella); test: Plutella test (leaf dip); type: in vivo
Procedure: as §2, with “Plutella” for “Heliothis armigera”, “Cabbages” for “Soya bean”, “(Brassica oleracea)” for “(Glycine max.)”, “diamondback moth (Plutella xylostella)” for “cotton bollworm (Heliothis armigera)”

[4] = system: green peach aphid (Myzus persicae); test: Myzus test; oral; type: in vivo; settings: for Kill rate after 5d in %: 100 ppm, oral
Procedure: Myzus Test; Oral Solvent: 80 parts by weight of acetone To produce a suitable preparation of active compound, 1 part by weight of active compound is mixed with the stated amounts of solvent and the concentrate is diluted with water to the desired concentration. Vessels are populated with all stages of the green peach aphid (Myzus persicae) which are treated by sucking the active compound preparation of the desired concentration. After the desired period of time, the activity in % is determined. 100% means that all aphids have been killed; 0% means that none of the aphids have been killed.

[5] = system: Spodoptera frugiperda larvae; test: Spodoptera frugiperda test (treatment by watering); type: in vivo; settings: for Kill rate after 14d in %: 20 ppm, treatment by watering
Procedure: Spodoptera frugiperda Test Solvent: 7 parts by weight of dimethylformamide Emulsifier: 2 parts by weight of alkylaryl polyglycol ether To produce a suitable preparation of active compound, 1 part by weight of active compound is mixed with the stated amounts of solvent and emulsifier and the concentrate is diluted with water to the desired concentration. Maize plants (Zea mays) are watered with an active compound preparation of the desired concentration and infected with Spodoptera frugiperda larvae. After the desired period of time, the kill in % is determined. 100% means that all larvae have been killed; 0% means that none of the larvae have been killed.

[6] = system: caterpillars of the army worm (Spodoptera frugiperda); test: Spodoptera frugiperda test (SPODFR spray treatment); type: in vivo; settings: for Kill rate after 7d in %: spray treatment
Procedure: Spodoptera frugiperda Test (SPODFR Spray Treatment) Solvents: 78 parts by weight of acetone • • 1.5 parts by weight of dimethylformamide Emulsifier: 0.5 part by weight of alkylaryl polyglycol ether To produce a suitable preparation of active compound, 1 part by weight of active compound is mixed with the stated amounts of solvents and emulsifier and the concentrate is diluted with emulsifier-containing water to the desired concentration. Discs of maize leaves (Zea mays) are sprayed with an active compound preparation of the desired concentration and after drying populated with caterpillars of the army worm (Spodoptera frugiperda). After the desired period of time, the activity in % is determined. 100% means that all of the caterpillars have been killed; 0% means that none of the caterpillars have been killed.

[7] = system: Spodoptera exigua, resistant strain; test: Spodoptera exigua test; resistant strain; type: in vivo; settings: for Kill rate after 7d in %: resistant strain
Procedure: Spodoptera exigua Test; Resistant Strain
Solvent: 7 parts by weight of dimethylformamide
Emulsifier: 2 parts by weight of alkylaryl polyglycol ether
To produce a suitable preparation of active compound, 1 part by weight of active compound is mixed with the stated amounts of solvent and emulsifier and the concentrate is diluted with emulsifier-containing water to the desired concentration.
Cabbage leaves (Brassica oleracea) are treated by being dipped into the active compound preparation of the desired concentration and populated with caterpillars of the army worm (Spodoptera exigua, resistant strain) while the leaves are still moist.
After the desired period of time, the kill in % is determined. 100% means that all caterpillars have been killed; 0% means that none of the caterpillars have been killed.

[8] = system: caterpillars of the army worm (Spodoptera exigua); test: Spodoptera exigua test (leaf dip); type: in vivo
Procedure: as §2, with “Spodoptera exigua” for “Heliothis armigera”, “Cabbage” for “Soya bean”, “(Brassica oleracea)” for “(Glycine max.)”, “army worm (Spodoptera exigua)” for “cotton bollworm (Heliothis armigera)”

[9] = logP determination by HPLC (reversed-phase C18), EEC Directive 79/831 Annex V.A8; type: physicochemical; settings: HPLC reversed-phase C18, 43° C., acidic range pH 2.7
Procedure: The logP values given in the tables and Preparation Examples above are determined in accordance with EEC Directive 79/831 Annex V.A8 by HPLC (High Performance Liquid Chromatography) on a reversed-phase column (C 18). Temperature: 43° C. The determination by LC-MS in the acidic range is carried out at pH 2.7 using 0.1% aqueous formic acid and acetonitrile (contains 0.1% formic acid) as mobile phases; linear gradient from 10% acetonitrile to 95% acetonitrile. Calibration is carried out using unbranched alkan-2-ones (having 3 to 16 carbon atoms) with known logP values (determination of the logP values by the retention times using linear interpolation between two successive alkanones).

[10] = system: Diabrotica undecimpunctata; test: Diabrotica undecimpunctata (DIABUN) test (eggs); type: in vivo
Procedure: Diabrotica undecimpunctata (DIABUN) Solvents: 1% of N-methylpyrrolidone (NMP) • 1% of diacetone alcohol Dye: brilliant sulphoflavin for staining the water To produce a suitable preparation of active compound, the active compound is mixed with the stated amounts of solvents and the concentrate is diluted with stained water to the desired concentration. The eggs (Diabrotica undecimpunctata) are treated with an active compound preparation of the desired concentration. After the desired period of time, the activity in % is determined. 100% means that all animals have been killed; 0% means that none of the animals have been killed.

[11] = system: green peach aphid (Myzus persicae); test: Myzus test (MYZUPE spray treatment); type: in vivo; settings: for Kill rate after 5d in %: 100 g/ha, spray treatment
Procedure: as §1, with “Myzus” for “Phaedon”, “Test (MYZUPE Spray Treatment)” for “Test”, “pekinensis), which are infested by all stages of the green peach aphid (Myzus persicae)” for “pekinensis)”, “concentration.” for “concentration and, after drying, populated with larvae of the mustard beetle (Phaedon cochleariae).”, “aphids” for “beetle larvae”

Structure (SMILES) | activity in the Phaedon test (in words) [1] | activity in the Heliothis armigera test (in words) [2] | activity in the Plutella test (in words) [3] | activity in the Myzus test, oral (in words) [4] | Kill rate after 14d in % [5] [%] | activity in the Spodoptera frugiperda test, spray treatment (in words) [6] | activity in the Spodoptera exigua test, resistant strain (in words) [7] | activity in the Spodoptera exigua test (in words) [8] | Kill rate after 7d in % ([1]; 100 g/ha) [%] | logP [9] | Kill rate after 7d in % ([6]; 100 g/ha) [%] | activity in the Myzus test, spray treatment (in words) [11] | Kill rate after 5d in % [11] [%] | Kill rate after 5d in % [4] [%] | other results
O=C(Nc1c(Cl)cc(Cl)cc1C1=NOCCO1)c1cc(C(F)(F)F)nn1-c1cccc(Cl)n1 [Example I-1-1] | good activity | good activity | good activity | good activity | 95 | good activity | good activity | good activity | – | – | – | – | – | – | Kill rate after 7d in % ([1]; 500 g/ha): 100%; Kill rate after 7d in % ([2]; 20 ppm): 100%; Kill rate after 7d in % ([3]; 100 ppm): 100%; activity in the Spodoptera frugiperda test, watering (in words) [5]: good activity; Kill rate after 7d in % ([6]; 500 g/ha): 100%; Kill rate after 7d in % ([7]; 100 ppm): 100%; Kill rate after 7d in % ([8]; 20 ppm): 100%
Cc1cc(Cl)cc(C2=NOCCO2)c1NC(=O)c1cc(Br)nn1-c1ncccc1Cl [Example I-1-5] | good activity | – | – | – | – | good activity | – | – | 83 | 3.13 | 100 | – | – | – | activity in the Diabrotica undecimpunctata test (in words) [10]: good activity; Kill rate after 2-5d in % ([10]; 300 ppm, 2-5 d, eggs): 100%
Cc1cc(Br)cc(C2=NOCCO2)c1NC(=O)c1cc(C(F)(F)F)nn1-c1ncccc1Cl [Example I-1-11] | good activity | good activity | good activity | – | 98 | good activity | good activity | good activity | 100 | 3.58 | 100 | – | – | – | Kill rate after 7d in % ([2]; 20 ppm): 100%; Kill rate after 7d in % ([3]; 20 ppm): 80%; activity in the Spodoptera frugiperda test, watering (in words) [5]: good activity; Kill rate after 7d in % ([7]; 20 ppm): 80%; Kill rate after 7d in % ([8]; 20 ppm): 100%
Cc1cccc(C2=NOCCN2)c1NC(=O)c1cc(Cl)nn1-c1ncccc1Cl [Example I-1-17] | good activity | good activity | good activity | – | 98 | good activity | good activity | good activity | – | 1.65 | 100 | good activity | 100 | – | Kill rate after 7d in % ([2]; 4 ppm): 100%; Kill rate after 7d in % ([3]; 4 ppm): 100%; Kill rate after 7d in % ([7]; 4 ppm): 100%; Kill rate after 7d in % ([8]; 4 ppm): 100%
Cc1cc(I)cc(C2=NOCCN2)c1NC(=O)c1cc(Br)cn1-c1ncccc1Cl [Example I-1-22] | good activity | – | – | good activity | – | good activity | – | – | 100 | 2.39 | 100 | good activity | 100 | 100 | –
Cc1cc(I)cc(C2=NOCCN2)c1NC(=O)c1cc(Br)nn1-c1ncccc1Cl [Example I-1-23] | good activity | – | – | good activity | – | good activity | – | – | 100 | 2.21 | 100 | good activity | 90 | 100 | –
Cc1cc(I)cc(C2=NOCCN2)c1NC(=O)c1cc(C(F)(F)F)nn1-c1ncccc1Cl [Example I-1-24] | good activity | – | – | good activity | – | good activity | – | – | 100 | 2.66 | 100 | good activity | 90 | 100 | –
